Experimental data as given in PMC12190436, “5-Ene-2-arylaminothiazol-4(5H)-ones Induce Apoptosis in Breast Cancer Cells” (Cells, 2025).
Where a name gives a salt, the structure may show the parent alone.

What was measured:
[1] = system: AGS; assay: MTT cell viability assay; type: cell-based; details: Homo sapiens
From the text: (§1) All of the tested cell lines were acquired from the American Type Culture Collection (ATCC, Manassas, VA, USA), including human breast cancer cell lines (MCF-7, MDA-MB-231), human gastric cancer cell line (AGS), human colorectal cancer cell lines (HT-29, DLD-1), human glioblastoma cancer cell lines (T98G, A172), mouse astrocyte type I clone (C8-D1A), human normal epithelial breast cells (MCF-10A) and primary dermal fibroblast (HDFa). Such cell lines as AGS, MCF-7, MDA-MB-231, A172, T98G, C8-D1A, and primary dermal fibroblast (HDFa) were cultured in complete medium–DMEM (Corning, Kennebunk, ME, USA). RPMI-1640 (ATCC, Manassas, VA, USA) was used for the DLD-1 cell line, and McCoy’s 5A (PAN-Biotech, Aidenbach, Germany) for the HT-29 cell line. To all utilized media additionally was added 10% fetal bovine serum (FBS) (Eurx, Gdansk, Poland) and 1% penicillin and streptomycin solution (Corning, Kennebunk, ME, USA). MCF-10A cells were incubated in MEGM (Mammary Epithelial Cell Growth Medium) BulletKit supplemented with penicillin/streptomycin cocktail and 5% horse serum. All cells were cultured at 37 °C in an atmosphere with 5% CO₂ in tissue culture dishes (Sarstedt, Numbrecht, Germany). For experiments, cells were washed with phosphate-buffered saline (PBS) (Corning, Kennebunk, ME, USA) followed by the addition of 0.05% trypsin with 0.02% EDTA (Corning, Kennebunk, ME, USA). Scepter 3.0 cell counter (Merck Millipore, Burlington, MA, USA) was applied before each seeding to calculate the number of cells. For the next analyses, cells were reseeded in 6-well plates, 24-well plates, and 96-well plates.
(§2) MTT (3-(4,5-dimethylthiazol-2-yl)-2,5-diphenyltetrazolium bromide) assay method was utilized to analyze compound effects on cell viability. All cell lines were seeded in 96-well plates with 1 × 10^4 cells per well. After 24 h, cells were treated with the tested compounds and reference drug at concentrations of 0.1, 1, 2.5, 5, 10, and 20 µM for 24, 48, or 72 h. Next, a solution of 3-(4,5-dimethyl-2-thiazolyl)-2,5-diphenyl-2H-tetrazolium bromide (Sigma-Aldrich, St. Louis, MO, USA) in PBS with a concentration of 5 mg/mL was prepared. After the incubation with tested compounds, 10 µL of the prepared MTT solution was applied to each well, followed by 2 h of incubation at 37 °C. Next, cells underwent lysis by adding 100 µL of pre-prepared lysing buffer (containing 25 mM HCl, 2% acetic acid, 3% DMF, and 5% SDS, with a pH of 4.7). The absorbance was measured using a UV-VIS Helios Gamma (Unicam/ThermoFisher Scientific Inc., Cleveland, OH, USA) at 570 nm wavelength. The cells incubated with vehicle substance (0.1% DMSO) were taken as controls.
(§3) To investigate the cytotoxic potential of the newly synthesized compounds, a comprehensive assessment was conducted utilizing the MTT assay. This assay was applied on a diverse panel of cell lines, such as human breast cancer cell lines (MCF-7 and MDA-MB-231), human gastric cancer cell line (AGS), human colorectal cancer cell lines (HT-29 and DLD-1), human glioblastoma cancer cell lines (T98G and A172), mouse astrocyte type I clone cells (C8-D1A), primary dermal fibroblast (HDFa), and human normal breast cells (MCF-10A) for 24, 48, and/or 72 h.

[2] = system: A172; assay: MTT cell viability assay; type: cell-based; details: Homo sapiens
From the text: as §1, §2, §3

[3] = system: HT-29; assay: MTT cell viability assay; type: cell-based; details: Homo sapiens
From the text: as §1, §2, §3

[4] = system: MCF-7; assay: MTT cell viability assay; type: cell-based; details: Homo sapiens
From the text: as §1, §2, §3

[5] = system: MDA-MB-231; assay: MTT cell viability assay; type: cell-based; details: Homo sapiens
From the text: as §1, §2, §3

[6] = system: T98G; assay: MTT cell viability assay; type: cell-based; details: Homo sapiens
From the text: as §1, §2, §3

[7] = system: MCF-10A; assay: MTT cell viability assay; type: cell-based; details: Homo sapiens, normal cells
From the text: as §1, §2, §3

[8] = system: DLD-1; assay: MTT cell viability assay; type: cell-based; details: Homo sapiens
From the text: as §1, §2, §3

[9] = system: Primary Dermal Fibroblast (HDFa); assay: MTT cell viability assay; type: cell-based; details: Homo sapiens, normal cells
From the text: as §1, §2, §3

[10] = system: C8-D1A; assay: MTT cell viability assay; type: cell-based; details: Mus musculus, normal cells
From the text: as §1, §2, §3

[11] = system: MCF-7 cells; assay: Annexin V-FITC/propidium iodide flow cytometry; type: cell-based, human; details: 24 h; for viability at 5 µM: MCF7, 5 µM
Procedure: The MCF-7 cells were seeded on 6-well plates (1 × 10^5 cells per well) and incubated for 24 h. Afterwards, the cells were washed, and tested compounds (Les-6416, Les-6418, Les-6381, Les-6423, and Les-6424) were added in a concentration of 5 µM. The reference drug doxorubicin hydrochloride was applied in a concentration of 0.5 µM. The cells were incubated with the compounds for 24 h. Afterwards, the cells were washed several times with cold PBS and the cell suspensions were prepared in the binding buffer from the kit at a concentration of 1 × 10^6 cells/mL. A total of 100 µL of suspension was collected from each sample and transferred to the tubes. After that, 5 µL of Annexin V-FITC and 5 µL of propidium iodide were added. After 15 min of incubation at room temperature in a dark environment, the content of the tubes was filled with binding buffer up to 500 µL and assessed by BD FACSCanto II flow cytometer (Becton Dickinson Biosciences, San Jose, CA, USA). A total of 1 × 10^4 events were measured for each sample. The results were investigated by applying FACSDiva software Version 6.1.3. (BD Biosciences Systems, San Jose, CA, USA).
To assess the effects of novel compounds on apoptosis, we utilized flow cytometry analysis with Annexin V-FITC and Propidium Iodide double staining. In this way, we could distinguish between different cell populations based on their state: unstained or alive cells, cells stained with propidium iodide or necrotic cells, cells only stained with FITC-labeled annexin V or early apoptotic cells, and cells stained with both annexin V and propidium iodide or late apoptotic cells.

[12] = Homo sapiens, read-out: Viable cells, cell population

SMILES | IC50 ([1]; AGS 24 h) | IC50 ([1]; AGS 48 h) | IC50 ([3]; HT-29 24 h) | IC50 ([3]; HT-29 48 h) | IC50 ([4]; MCF7, MCF-7 24 h) | IC50 ([4]; MCF7, MCF-7 48 h) | IC50 ([4]; MCF7, MCF-7 72 h) | IC50 ([5]; MDA-MB-231 24 h) | IC50 ([5]; MDA-MB-231 48 h) | IC50 ([5]; MDA-MB-231 72 h) | IC50 ([8]; DLD-1 24 h) | IC50 ([8]; DLD-1 48 h) | IC50 ([2]; A 172, A172 24 h) | IC50 ([2]; A 172, A172 48 h) | IC50 ([6]; T98G 24 h) | IC50 ([6]; T98G 48 h) | IC50 ([7]; MCF-10A 24 h) | IC50 ([9]; HDFa 24 h) | IC50 ([9]; HDFa 48 h) | IC50 ([9]; HDFa 72 h) | other results
COc1cc(NC2=NC(=O)C(=Cc3ccc4cc[nH]c4c3)S2)cc(OC)c1OC [Les-6416, 5-((1H-Indol-6-yl)methylene)-2-((3,4,5-trimethoxyphenyl)amino)thiazol-4(5H)-one] | > 20 µM | 3.45 ± 0.2 µM | > 20 µM | 6.58 ± 0.37 µM | 4700 ± 60 nM | 2090 ± 50 nM | 1290 ± 10 nM | > 20 µM | > 20 µM | > 20 µM | > 20 µM | > 20 µM | > 20 µM | > 20 µM | > 20 µM | > 20 µM | > 20 µM | > 20 µM | > 20 µM | > 20 µM | IC50 ([7]; MCF-10A 48 h): 7.99 ± 0.48 µM; IC50 ([7]; MCF-10A 72 h): 7.25 ± 0.3 µM; IC50 ([10]; C8-D1A 24 h): 14.3 ± 1.52 µM; IC50 ([10]; C8-D1A 48 h): 7.1 ± 0.73 µM; Early apoptotic cells, cell population ([11]; 5 µM): 8.23 ± 2.56%; Late apoptotic cells, cell population ([11]; 5 µM): 45.63 ± 10.29%; Necrotic cells, cell population ([11]; 5 µM): 0.07 ± 0.06%; viability at 5 µM [11, 12]: 39.8%
COc1cc(NC2=NC(=O)C(=Cc3c[nH]c4ccccc34)S2)cc(OC)c1OC [Les-6418, 5-((1H-Indol-3-yl)methylene)-2-((3,4,5-trimethoxyphenyl)amino)thiazol-4(5H)-one] | > 20 µM | 4.59 ± 0.42 µM | > 20 µM | 7.77 ± 0.91 µM | > 20000 nM | 4510 ± 40 nM | 2240 ± 70 nM | > 20 µM | > 20 µM | > 20 µM | > 20 µM | > 20 µM | > 20 µM | > 20 µM | 16.9 ± 1.58 µM | > 20 µM | > 20 µM | > 20 µM | > 20 µM | > 20 µM | IC50 ([7]; MCF-10A 48 h): 7.24 ± 0.29 µM; IC50 ([7]; MCF-10A 72 h): 6.66 ± 0.67 µM; IC50 ([10]; C8-D1A 24 h): 12.9 ± 0.24 µM; IC50 ([10]; C8-D1A 48 h): 7.42 ± 2.33 µM; Early apoptotic cells, cell population ([11]; 5 µM): 7.55 ± 1.17%; Late apoptotic cells, cell population ([11]; 5 µM): 44.68 ± 8.18%; Necrotic cells, cell population ([11]; 5 µM): 0.13 ± 0.05%; viability at 5 µM [11, 12]: 47.7%

Second part, led by results:

IC50 ([1]; AGS 24 h) | IC50 ([1]; AGS 48 h) | IC50 ([3]; HT-29 24 h) | IC50 ([3]; HT-29 48 h) | IC50 ([4]; MCF7, MCF-7 24 h) | IC50 ([4]; MCF7, MCF-7 48 h) | IC50 ([4]; MCF7, MCF-7 72 h) | IC50 ([5]; MDA-MB-231 24 h) | IC50 ([5]; MDA-MB-231 48 h) | IC50 ([5]; MDA-MB-231 72 h) | IC50 ([8]; DLD-1 24 h) | IC50 ([8]; DLD-1 48 h) | SMILES | IC50 ([2]; A 172, A172 24 h) | IC50 ([2]; A 172, A172 48 h) | IC50 ([6]; T98G 24 h) | IC50 ([6]; T98G 48 h) | IC50 ([7]; MCF-10A 24 h) | IC50 ([9]; HDFa 24 h) | IC50 ([9]; HDFa 48 h) | IC50 ([9]; HDFa 72 h) | other results
> 20 µM | 0.39 ± 0.01 µM | > 20 µM | 0.3 ± 0.04 µM | 2460 ± 540 nM | 810 ± 10 nM | 260 ± 30 nM | > 20 µM | 3.91 ± 0.22 µM | 2.37 ± 0.15 µM | 4.69 ± 0.48 µM | 0.6 ± 0.08 µM | COc1cccc2c1C(=O)c1c(O)c3c(c(O)c1C2=O)C[C@@](O)(C(=O)CO)C[C@@H]3O[C@H]1C[C@H](N)[C@H](O)[C@H](C)O1 [DOX, Doxorubicin hydrochloride, reference compound] | > 20 µM | 12.9 ± 0.89 µM | > 20 µM | > 20 µM | > 20 µM | > 20 µM | > 20 µM | 0.99 ± 0.03 µM | IC50 ([7]; MCF-10A 48 h): 0.16 ± 0.01 µM; IC50 ([7]; MCF-10A 72 h): 0.11 ± 0.01 µM; IC50 ([10]; C8-D1A 24 h): > 20 µM; IC50 ([10]; C8-D1A 48 h): 0.25 ± 0.01 µM; Necrotic cells, cell population ([11]; 0.5 µM): 27.23 ± 3.76%; viability at 0.5 µM ([11]; Homo sapiens, MCF7, 0.5 µM, read-out: Viable cells, cell population): 59.6%
> 20 µM | 2.24 ± 0.31 µM | > 20 µM | 4.58 ± 0.46 µM | 6930 ± 130 nM | 7930 ± 100 nM | 2430 ± 120 nM | > 20 µM | > 20 µM | > 20 µM | 18.2 ± 1.24 µM | 3.86 ± 0.11 µM | COc1ccc(C=C2SC(Nc3cc(OC)c(OC)c(OC)c3)=NC2=O)cc1 [Les-6381, 5-(4-Methoxybenzylidene)-2-((3,4,5-trimethoxyphenyl)amino)thiazol-4(5H)-one] | > 20 µM | 8.65 ± 0.52 µM | 13.1 ± 0.24 µM | 4.09 ± 0.1 µM | 8.37 ± 0.11 µM | > 20 µM | > 20 µM | > 20 µM | IC50 ([7]; MCF-10A 48 h): 0.97 ± 0.04 µM; IC50 ([7]; MCF-10A 72 h): 2.03 ± 0.1 µM; viability at 5 µM [11, 12]: 49.6%
> 20 µM | 14.5 ± 0.57 µM | > 20 µM | 4.41 ± 0.35 µM | > 20000 nM | > 20000 nM | > 20000 nM | > 20 µM | > 20 µM | > 20 µM | > 20 µM | > 20 µM | COc1cc(NC2=NC(=O)C(=Cc3cccs3)S2)cc(OC)c1OC [Les-6423, 5-(Thiophen-2-ylmethylene)-2-((3,4,5-trimethoxyphenyl)amino)thiazol-4(5H)-one] | > 20 µM | > 20 µM | > 20 µM | > 20 µM | – | > 20 µM | > 20 µM | > 20 µM | proapoptotic effect in comparison to the control ([11]; 5 µM): did not have any statistically significant results; viability at 5 µM [11, 12]: 90%
